Assay results reported in ChEMBL document CHEMBL2331446, “Discovery of a potential anti-inflammatory agent: 3-oxo-29-noroleana-1,9(11),12-trien-2,20-dicarbonitrile” (J Med Chem, 2013).
The source made the active and inactive calls. No cut-off for these calls is given here.

Key:
[1] = test system: RAW264.7; assay: Cytotoxicity against mouse RAW264.7 cells at 80 uM after 24 hrs by MTT assay; type: cell-based; conditions: raw264.7, 24 h
[2] = test system: RAW264.7; assay: Cytotoxicity against mouse LPS-challenged RAW264.7 cells at 80 uM after 24 hrs by MTT assay; type: cell-based; conditions: raw264.7, 24 h
[3] = test system: RAW264.7; assay: Antiinflammatory activity in mouse RAW264.7 cells assessed as inhibition of LPS-induced NO production incubated for 2 hrs prior to LPS-challenge measured after 24 hrs by Griess method; type: functional, cell-based
[4] = test system: RAW264.7; assay: Antiinflammatory activity in mouse RAW264.7 cells assessed as inhibition of LPS-induced NO production at 50 uM incubated for 2 hrs prior to LPS-challenge measured after 24 hrs by Griess method; type: functional
[5] = test system: Mus musculus; assay: Antiinflammatory activity in ICR mouse assessed as protection against LPS-induced sepsis at 50 mg/kg, ip administered for 5 days prior to LPS-challenge measured after 2 hrs; type: functional, organism-based; parameters: dose 50 mg/kg
[6] = test system: RAW264.7; assay: Inhibition of ERK phosphorylation in mouse LPS-induced RAW264.7 cells at 75 uM incubated for 2 hrs prior to LPS-challenge measured after 30 mins by Western blot analysis; type: cell-based
[7] = test system: RAW264.7; assay: Inhibition of JNK phosphorylation in mouse LPS-induced RAW264.7 cells at 75 uM incubated for 2 hrs prior to LPS-challenge measured after 30 mins by Western blot analysis; type: cell-based
[8] = molecular target: MAP kinase p38 (Mus musculus) (UniProt P47811+O08911+Q9WUI1+Q9Z1B7); assay: Inhibition of MAPK p38 in mouse LPS-induced RAW264.7 cells at 75 uM incubated for 2 hrs prior to LPS-challenge measured after 30 mins by Western blot analysis; type: cell-based
[9] = molecular target: T1, NF-kappa-B inhibitor alpha (Mus musculus) (UniProt Q9Z1E3); assay: Inhibition of IkappaBalpha in mouse RAW264.7 cells assessed as inhibition of LPS-stimulated NF-kappaB p65 subunit accumulation in nucleus at 75 uM incubated for 2 hrs prior to LPS-challenge measured after 30 mins by Western blot analysis; type: cell-based
T1 sequence (whole entry): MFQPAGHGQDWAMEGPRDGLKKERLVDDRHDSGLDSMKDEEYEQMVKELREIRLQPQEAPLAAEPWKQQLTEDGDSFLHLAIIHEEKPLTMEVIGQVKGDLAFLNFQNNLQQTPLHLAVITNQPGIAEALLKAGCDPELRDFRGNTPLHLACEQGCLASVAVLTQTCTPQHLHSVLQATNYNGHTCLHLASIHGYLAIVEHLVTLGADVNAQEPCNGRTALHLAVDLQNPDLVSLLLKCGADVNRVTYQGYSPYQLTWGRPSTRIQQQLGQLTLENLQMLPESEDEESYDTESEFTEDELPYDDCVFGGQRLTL

[10] = molecular target: T1, NF-kappa-B inhibitor alpha (Mus musculus); assay: Inhibition of IkappaBalpha degradation in mouse LPS-induced RAW264.7 cells assessed as increase in cytosolic IkappaB level at 75 uM incubated for 2 hrs prior to LPS-challenge measured after 30 mins by Western blot analysis; type: cell-based
[11] = molecular target: T1, NF-kappa-B inhibitor alpha (Mus musculus); assay: Inhibition of IkappaB phosphorylation in mouse RAW264.7 cells assessed as decrease in LPS-induced phospho-IkappaBalpha level at 75 uM incubated for 2 hrs prior to LPS-challenge measured after 30 mins by Western blot analysis; type: cell-based
[12] = test system: RAW264.7; assay: Antiinflammatory activity in mouse RAW264.7 cells assessed as inhibition of LPS-stimulated TNF-alpha mRNA expression at 75 uM incubated for 2 hrs prior to LPS-challenge measured after 8 hrs by quantitative real time PCR analysis; type: functional, cell-based
[13] = test system: RAW264.7; assay: Antiinflammatory activity in mouse RAW264.7 cells assessed as inhibition of LPS-stimulated IL-1beta mRNA expression at 75 uM incubated for 2 hrs prior to LPS-challenge measured after 8 hrs by quantitative real time PCR analysis; type: functional, cell-based
[14] = test system: RAW264.7; assay: Antiinflammatory activity in mouse RAW264.7 cells assessed as inhibition of LPS-stimulated IL-6 mRNA expression at 75 uM incubated for 2 hrs prior to LPS-challenge measured after 8 hrs by quantitative real time PCR analysis; type: functional, cell-based
[15] = test system: RAW264.7; assay: Antiinflammatory activity in mouse RAW264.7 cells assessed as inhibition of LPS-induced iNOS protein expression at 75 uM incubated for 2 hrs prior to LPS-challenge measured after 24 hrs by Western blot analysis; type: functional, cell-based
[16] = test system: Mus musculus; assay: Antiinflammatory activity in ICR mouse assessed as reversal in LPS-induced weight loss at 20 mg/kg, ip administered for 5 days prior to LPS-challenge measured from day 9 to 11 relative to control; type: functional, organism-based; parameters: dose 20 mg/kg
[17] = test system: Mus musculus; assay: Antiinflammatory activity in ICR mouse assessed as reversal in LPS-induced weight loss at 20 mg/kg, ip administered for 5 days prior to LPS-challenge measured up to day 8 relative to control; type: functional, organism-based; parameters: dose 20 mg/kg
[18] = test system: Mus musculus; assay: Antiinflammatory activity in ICR mouse assessed as protection against LPS-induced sepsis at 20 mg/kg, ip administered for 5 days prior to LPS-challenge measured after 2 hrs; type: functional, organism-based; parameters: dose 20 mg/kg

Row | SMILES | IC50 [3] | Activity [1] | Activity [2] | inhibition at 50 µM [4] | other results
1 | CC1(C)C(=O)C=C[C@]2(C)C3=CC=C4[C@@H]5C[C@@](C)(C(N)=O)CC[C@]5(C)CC[C@@]4(C)[C@]3(C)CC[C@@H]12 | 40.1 µM | Non-toxic | Non-toxic | 32.5% | 
2 | CC1(C)C(=O)C=C[C@]2(C)C3=CC=C4[C@@H]5C[C@@](C)(C(=O)O)CC[C@]5(C)CC[C@@]4(C)[C@]3(C)CC[C@@H]12 | > 50 µM | Non-toxic | Non-toxic | 25.1% | 
3 | CC1(C)C(=O)C(I)=C[C@]2(C)C3=CC=C4[C@@H]5C[C@@](C)(C(=O)O)CC[C@]5(C)CC[C@@]4(C)[C@]3(C)CC[C@@H]12 | 20.1 µM | Non-toxic | Non-toxic | 60.3% | 
4 | CC1(C)C(=O)C(I)=C[C@]2(C)C3=CC=C4[C@@H]5C[C@@](C)(C#N)CC[C@]5(C)CC[C@@]4(C)[C@]3(C)CC[C@@H]12 | 25.1 µM | Non-toxic | Non-toxic | 52.9% | 
5 | CC1(C)C(=O)C(O)=C[C@]2(C)C3=CC=C4[C@@H]5C[C@@](C)(C(N)=O)CC[C@]5(C)CC[C@@]4(C)[C@]3(C)CC[C@@H]12 | 35.1 µM | Non-toxic | Non-toxic | 37.5% | 
6 | CC1(C)[C@@H](O)CC[C@]2(C)[C@H]3C(=O)C=C4[C@@H]5C[C@@](C)(C(=O)O)CC[C@]5(C)CC[C@@]4(C)[C@]3(C)CC[C@@H]12 [ENOXOLONE] | 188 µM |  |  | 5.12% | Activity [5]: Active; inhibition [6]: Active; inhibition [7]: Active; inhibition [8]: Active; inhibition [9]: Active; inhibition [10]: Active; inhibition [11]: Active; inhibition [12]: Active; inhibition [13]: Active; inhibition [14]: Active; inhibition [15]: Active
7 | C[C@@H]1C[C@H]2[C@@H]3CCC4=CC(=O)C=C[C@]4(C)[C@@]3(F)[C@@H](O)C[C@]2(C)[C@@]1(O)C(=O)CO [DEXAMETHASONE] | 1.43 µM |  |  | 98.2% | Activity [16]: Active; Activity [17]: inactive; Activity [18]: Active
8 | CC1(C)C(=O)CC[C@]2(C)C3=CC=C4[C@@H]5C[C@@](C)(C(=O)O)CC[C@]5(C)CC[C@@]4(C)[C@]3(C)CC[C@@H]12 | > 50 µM | Non-toxic | Non-toxic | 7.36% | 
9 | CC1(C)[C@@H](O)CC[C@]2(C)C3=CC=C4[C@@H]5C[C@@](C)(C(=O)O)CC[C@]5(C)CC[C@@]4(C)[C@]3(C)CC[C@@H]12 | > 50 µM | Non-toxic | Non-toxic | 15.6% | 
10 | CC1(C)C(=O)C(O)=C[C@]2(C)C3=CC=C4[C@@H]5C[C@@](C)(C(=O)n6ccnc6)CC[C@]5(C)CC[C@@]4(C)[C@]3(C)CC[C@@H]12 | 6.22 µM | Non-toxic | Non-toxic | 99% | 
11 | CC1(C)C(=O)C=C[C@]2(C)C3=CC=C4[C@@H]5C[C@@](C)(C#N)CC[C@]5(C)CC[C@@]4(C)[C@]3(C)CC[C@@H]12 | 28.5 µM | Non-toxic | Non-toxic | 50.2% | 

Second part, led by results:

Row | IC50 [3] | SMILES | Activity [1] | Activity [2] | inhibition at 50 µM [4] | other results
12 | 20 µM | COC(=O)[C@@]1(C)CC[C@]2(C)CC[C@]3(C)C(=CC=C4[C@@]5(C)C=C(C#N)C(=O)C(C)(C)[C@@H]5CC[C@]43C)[C@@H]2C1 | Non-toxic | Non-toxic | 67.3% | 
13 | > 50 µM | CNC(=O)[C@@]1(C)CC[C@]2(C)CC[C@]3(C)C(=CC=C4[C@@]5(C)C=C(O)C(=O)C(C)(C)[C@@H]5CC[C@]43C)[C@@H]2C1 | Non-toxic | Non-toxic | 27.6% | 
14 | > 50 µM | COC(=O)[C@@]1(C)CC[C@]2(C)CC[C@]3(C)C(=CC=C4[C@@]5(C)C=C(I)C(=O)C(C)(C)[C@@H]5CC[C@]43C)[C@@H]2C1 | Non-toxic | Non-toxic | 15.3% | 
15 | > 50 µM | COC(=O)[C@@]1(C)CC[C@]2(C)CC[C@]3(C)C(=CC=C4[C@@]5(C)C=CC(=O)C(C)(C)[C@@H]5CC[C@]43C)[C@@H]2C1 | Non-toxic | Non-toxic | 5.5% | 
16 | 32.8 µM | CC1(C)C(=O)C(O)=C[C@]2(C)C3=CC=C4[C@@H]5C[C@@](C)(C(=O)O)CC[C@]5(C)CC[C@@]4(C)[C@]3(C)CC[C@@H]12 | Non-toxic | Non-toxic | 42.1% | 
17 | 3.08 µM | CC1(C)C(=O)C(C#N)=C[C@]2(C)C3=CC=C4[C@@H]5C[C@@](C)(C(=O)O)CC[C@]5(C)CC[C@@]4(C)[C@]3(C)CC[C@@H]12 | Non-toxic | Non-toxic | 98.4% | 
18 | 38.6 µM | COC(=O)[C@@]1(C)CC[C@]2(C)CC[C@]3(C)C(=CC=C4[C@@]5(C)C=C(O)C(=O)C(C)(C)[C@@H]5CC[C@]43C)[C@@H]2C1 | Non-toxic | Non-toxic | 33.3% | 
